# Test results published in ChEMBL document CHEMBL1800049, “Aryl 1,4-diazepane compounds as potent and selective CB2 agonists: optimization of drug-like properties and target independent parameters” (Bioorg Med Chem Lett, 2011).
# Tests used:
# [1] = Permeability from apical to basolateral side of human Caco2 cells at 10 uM after […] by HPLC-MS/MS analysis; format: ADME, cell-based; settings: Caco-2, read-out: permeability
# [2] = Oral bioavailability in cynomolgus monkey; format: ADME, organism-based, Macaca fascicularis; settings: in vivo
# [3] = Permeability from basolateral to apical side of human Caco2 cells at 10 uM after […] by HPLC-MS/MS analysis; format: ADME, cell-based; settings: Caco-2, read-out: permeability
SMILES,"Papp A→B at […], 10 µM [1] [×10⁻⁶ cm/s]","Papp B→A at […], 10 µM [3] [×10⁻⁶ cm/s]",bioavailability [2] [%]
CC(C)(C)c1cc(NC(=O)N2CCCN(C(=O)C3CCOCC3)CC2)no1,7,42,3
O=C(C1CCOCC1)N1CCCN(c2nc(-c3ccccc3)ns2)CC1,67,61,–
O=C(C1CCOCC1)N1CCCN(c2nc(C(F)(F)F)c(Cl)s2)CC1,53,70,–

# Continued, in another order:
"Papp A→B at […], 10 µM [1] [×10⁻⁶ cm/s]","Papp B→A at […], 10 µM [3] [×10⁻⁶ cm/s]",SMILES,bioavailability [2] [%]
49,64,CC(C)(C)c1ccc2oc(N3CCCN(C(=O)C4CCOCC4)CC3)nc2c1,–
62,71,O=C(C1CCOCC1)N1CCCN(c2nc3ccc(Cl)cc3s2)CC1,–
